Measurements as given in PubChem BioAssay AID492977 (The Scripps Research Institute Molecular Screening Center, 2010).
Activity calls are given as the source filed them.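 The calls were made as follows: active = inhibition of the parasite aminopeptidase above 50%; inactive = the rest.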

These compounds were tested against Leucine aminopeptidase (Plasmodium falciparum (isolate 3D7)) (UniProt Q8IL11) (assay: inhibition of purified malaria M17 aminopeptidase – biochemical, fluorescence, recombinant enzyme, powder samples, late-stage follow-up (AID 492977)). Details: recombinant PfM17LAP, H-Leu-NHMec fluorogenic substrate; at 5 µM; stronger effect = higher value.
Leucine aminopeptidase (Plasmodium falciparum (isolate 3D7)), sequence (Q8IL11 whole entry, looked up): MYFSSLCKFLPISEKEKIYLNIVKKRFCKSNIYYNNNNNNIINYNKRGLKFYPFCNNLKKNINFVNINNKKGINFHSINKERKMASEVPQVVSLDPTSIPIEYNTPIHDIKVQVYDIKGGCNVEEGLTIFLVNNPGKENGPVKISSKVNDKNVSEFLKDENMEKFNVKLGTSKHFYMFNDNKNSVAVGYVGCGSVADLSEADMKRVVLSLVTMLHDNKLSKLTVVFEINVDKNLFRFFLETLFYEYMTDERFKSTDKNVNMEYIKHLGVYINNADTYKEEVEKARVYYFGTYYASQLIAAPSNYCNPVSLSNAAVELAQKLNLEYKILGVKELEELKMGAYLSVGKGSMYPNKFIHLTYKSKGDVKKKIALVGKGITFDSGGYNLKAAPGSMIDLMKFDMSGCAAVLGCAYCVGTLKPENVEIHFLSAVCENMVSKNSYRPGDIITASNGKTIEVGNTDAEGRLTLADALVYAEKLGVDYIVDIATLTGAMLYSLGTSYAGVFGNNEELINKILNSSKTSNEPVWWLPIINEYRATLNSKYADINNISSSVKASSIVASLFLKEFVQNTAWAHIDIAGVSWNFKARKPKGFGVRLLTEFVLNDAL
In the case of `O=C(Nc1cccc(Cl)c1)[C@H]1CC=CC[C@H]1C(=O)O`, the inhibition was 13% (inactive).
For `COC(=O)c1c(-c2cc(C)ccc2C)csc1NC(=O)[C@@H]1CC=CC[C@@H]1C(=O)O`, the inhibition was 58%.
`O=C(Nc1ccc(Cl)cc1)Nc1cccc(C(=O)O)c1` was tested, and the inhibition was 65%.
`Cc1ccc(-n2c(C)cc(C(=O)COC(=O)c3ccc[nH]c3=O)c2C)cc1C` was tested, and the inhibition was 36% (inactive).
`COc1ccc2nc(SCC(=O)Nc3cc(OC)c(OC)cc3C(=O)O)c(C)cc2c1` was tested, and the inhibition was 86%.
With `Cc1ccc(-c2c(C)sc(NC(=O)[C@@H]3C4CCC(O4)[C@@H]3C(=O)O)c2C(=O)OC(C)C)cc1` (some centres not stated) the inhibition was 19% (inactive).
`O=c1cc(-c2ccc(F)cc2)[nH][nH]1` was tested, and the inhibition was 49% (inactive).
For `S=c1nc(-c2ccccc2Br)[nH][nH]1`, the inhibition was 27% (inactive).
In the case of `Cc1cc(C(=O)COC(=O)c2ccc[nH]c2=O)c(C)n1-c1ccc(F)cc1`, the inhibition was 19% (inactive).
For `COc1cc(NC(=O)CSc2nc3c(C)ccc(C)c3cc2C)c(C(=O)O)cc1OC`, the inhibition was 93%.
For `O=C(CSc1nc(O)cc(=O)n1-c1ccccc1)Nc1ccc2c3c(cccc13)CC2`, the inhibition was 20% (inactive).
`N#Cc1c(NC(=O)[C@@H]2C3C=CC(C3)[C@@H]2C(=O)O)sc2c1CCCCC2` (some centres not stated) was tested, and the inhibition was 25% (inactive).
With `CCc1cc2ccc(C)cc2nc1SCC(=O)Nc1cc(OC)c(OC)cc1C(=O)O` the inhibition was 90%.
Work on `COc1cc(NC(=O)CSc2nc3ccccc3cc2C)c(C(=O)O)cc1OC` yielded an inhibition of 86%.
`Cc1ccc(Nc2nnc(SC3CCOC3=O)s2)cc1` (configuration not stated) gave an inhibition of 53%.
`CCOc1ccc(NC(=O)Nc2ccc3nccnc3c2)cc1` was tested, and the inhibition was 11% (inactive).
With `COC(=O)c1c(NC(=O)[C@H]2CCCC[C@H]2C(=O)O)sc2c1CCCCC2` the inhibition was 59%.
With `Cc1ccc(Nc2nnc(SCc3cc(=O)n4ccsc4n3)s2)c(C)c1` the inhibition was 10% (inactive).
In the case of `COc1ccc(NC(=O)CSc2nc(O)cc(=O)n2C)cc1`, the inhibition was 18% (inactive).
For `S=c1nc(-c2cccc(Cl)c2)[nH][nH]1`, the inhibition was 45% (inactive).
With `CCOC(=O)c1c(-c2cccc(C)c2)csc1NC(=O)[C@H]1CC=CC[C@H]1C(=O)O` the inhibition was 19% (inactive).
With `Cc1cc(C(=O)COC(=O)c2ccc[nH]c2=O)c(C)n1-c1ccccc1` the inhibition was 23% (inactive).
In the case of `CCOc1ccc(NC(=O)Nc2cccs2)cc1`, the inhibition was 31% (inactive).
In the case of `C=CCn1c(SCC(=O)Nc2cccc3ccccc23)nc(O)c(CC)c1=O`, the inhibition was 20% (inactive).
For `O=C(CSc1nnc(Nc2ccccc2)s1)NN1C(=O)NC2(CCCCC2)C1=O`, the inhibition was 37% (inactive).
In the case of `COc1cc(NC(=O)CSc2nc3cc(C)ccc3cc2C)c(C(=O)O)cc1OC`, the inhibition was 82%.
`CCc1cc2ccccc2nc1SCC(=O)Nc1cc(OC)c(OC)cc1C(=O)O` was tested, and the inhibition was 89%.
`COC(=O)c1c(-c2ccco2)csc1NC(=O)[C@H]1CC=CC[C@H]1C(=O)O` was tested, and the inhibition was 50% (inactive).
For `CCN(CC)c1ccc(NC(=O)CSc2nc(C)cc(=O)[nH]2)cc1`, the inhibition was 43% (inactive).
In the case of `COc1ccc(-c2cc(=O)[nH][nH]2)cc1`, the inhibition was 40% (inactive).
In the case of `CC(C)c1ccc(NC(=O)[C@H]2CCCC[C@H]2C(=O)O)cc1`, the inhibition was 15% (inactive).
For `COC(=O)c1cccc(NC(=O)CSc2nc(C)cc(=O)[nH]2)c1`, the inhibition was 21% (inactive).
`CC1=C(C)C[C@@H](C(=O)O)[C@@H](C(=O)Nc2cccc([N+](=O)[O-])c2)C1` was tested, and the inhibition was 12% (inactive).
In the case of `COc1cc(NC(=O)CSc2nnc3c(C)cc4cc(C)cc(C)c4n23)c(C(=O)O)cc1OC`, the inhibition was 72%.
`CCOC(=O)c1c(-c2ccc(C)cc2)csc1NC(=O)[C@H]1CC=CC[C@H]1C(=O)O` was tested, and the inhibition was 24% (inactive).
`CCc1cc2cc(OC)ccc2nc1SCC(=O)Nc1cc(OC)c(OC)cc1C(=O)O` was tested, and the inhibition was 89%.
For `Cn1c(SCC(=O)Nc2cccc3ccccc23)nc(O)cc1=O`, the inhibition was 12% (inactive).
For `CCOC(=O)c1c(NC(=O)[C@@H]2C3CCC(O3)[C@@H]2C(=O)O)sc(C)c1-c1ccc(C)cc1` (some centres not stated), the inhibition was 20% (inactive).
In the case of `CCOC(=O)c1c(NC(=O)[C@@H]2C3C=CC(C3)[C@@H]2C(=O)O)sc2c1CCC(CC)C2` (some centres not stated), the inhibition was 20% (inactive).
With `COC(=O)c1c(NC(=O)[C@H]2CC=CC[C@H]2C(=O)O)sc(C)c1C` the inhibition was 17% (inactive).
`CCOc1cccc(-c2cc(=O)[nH][nH]2)c1` was tested, and the inhibition was 72%.
With `Cc1ccc(NC(=O)CSc2nnc(C)c(=O)[nH]2)cc1C` the inhibition was 17% (inactive).
`CCc1ccc(NC(=O)[C@H]2CC=CC[C@H]2C(=O)O)cc1` was tested, and the inhibition was 27% (inactive).
For `O=C(Nc1cc(Cl)ccc1Cl)[C@H]1CC=CC[C@H]1C(=O)O`, the inhibition was 14% (inactive).
With `COc1ccc(NC(=O)CSC2=NC(=O)CC(C)=N2)cc1` the inhibition was 21% (inactive).
In the case of `COC(=O)c1c(-c2ccc(C)cc2)csc1NC(=O)[C@H]1CC=CC[C@H]1C(=O)O`, the inhibition was 47% (inactive).
`O=C(O)CCCCCNC(=O)Nc1ccc2c(c1)OCCO2` was tested, and the inhibition was 15% (inactive).
`COc1ccc(C(C)(C)C)cc1NC(=O)[C@H]1CC=CC[C@H]1C(=O)O` was tested, and the inhibition was 26% (inactive).
`CCn1c2ccccc2c2cc(NC(=O)CSc3nccc(=O)[nH]3)ccc21` showed an inhibition of 70%.
In the case of `O=c1cc(-c2ccc(Cl)c(Cl)c2)[nH][nH]1`, the inhibition was 2% (inactive).
In the case of `CCc1ccc(Nc2nnc(SC3CCOC3=O)s2)cc1` (configuration not stated), the inhibition was 31% (inactive).
For `Cc1ccc(-c2cccc(NC(=O)[C@@H]3C4C=CC(C4)[C@@H]3C(=O)O)c2)o1` (some centres not stated), the inhibition was 9% (inactive).
With `Cc1ccc(-n2c(C)cc(C(=O)COC(=O)c3ccc[nH]c3=O)c2C)cc1` the inhibition was 40% (inactive).
`O=C(CSc1nccc(=O)[nH]1)Nc1ccc(Br)c(Cl)c1` showed an inhibition of 60%.
With `O=C(O)Cc1ccc(NC(=O)Nc2ccc(Br)cc2)cc1` the inhibition was 38% (inactive).
`CCCCc1c(O)nc(SCC(=O)Nc2ccc3c(c2)CCC3)[nH]c1=O` was tested, and the inhibition was 27% (inactive).
With `COc1ccc(-c2cc(=O)[nH][nH]2)cc1OC` the inhibition was 18% (inactive).
